The values below come from patent publication US8273404B2, “Extraction of solvents from drug containing polymer reservoirs” (Cordis Corporation, priority 2008, dated 2012).

Series [1] in a line: Liquid formulations of sirolimus and CCI-779: concentration by liquid chromatography/HPLC, visual observation. It counts as physicochemical.
Series [2] relates to human coronary artery smooth muscle cells. The series is described as follows: Anti-proliferative activity in cultured human coronary artery smooth muscle cells stimulated with two percent fetal bovine serum. In kind it is cell-based. The following applies: for effect of the added agent on the anti-proliferative activity of rapamycin: agent added to rapamycin treated human coronary artery smooth muscle cells; for effect of the added agent on the anti-proliferative activity of rapamycin / inhibition of human coronary artery smooth muscle cell proliferation (in words): two percent fetal bovine serum; for inhibition of human coronary artery smooth muscle cell proliferation (in words): agent alone. From the text: The multiple curves represent various concentrations of mycophenolic acid ranging from zero to one thousand nanomolar concentrations.
FIG. 58 illustrates, in graphical format, the anti-proliferative activity of cladribine in non-synchronized cultured human coronary artery smooth muscle cells stimulated with two percent fetal bovine serum.
The multiple curves represent various concentrations of cladribine ranging from zero to nine hundred nanomolar concentrations.
(§1) The multiple curves represent various concentrations of topotecan ranging from zero to three hundred nanomolar concentrations.
(§2) The multiple curves represent various concentrations of etoposide ranging from zero to eight hundred nanomolar concentrations.
The multiple curves represent various concentrations of Panzem® ranging from zero to 100 micromolar concentrations.
Curve 8702 illustrates the percent inhibition for various concentrations. In FIG. 88, the six curves 8802, 8804, 8806, 8808, 8810 and 8812 represent various concentrations of PX867 with various concentrations of sirolimus. […] More specifically, curve 8812 illustrates the percent inhibition for a 240 nM PX-867 concentration. […] This may be compared to curve 8804 which represents a 15 nM PX-867 concentration.

Series [3] has as its system human coronary artery smooth muscle cell. The series is described as follows: MTS cytotoxicity assay of Panzem. In kind it is cell-based. The following applies: concentrations up to 30,000.00 nanomolar. From the text: Typically, a control is utilized to determine baseline toxicity.
(Tetrazolium assays rely on reduction of a dye to a coloured formazan, in cell work by metabolically active cells.)

A short description of series [4]: In vitro release kinetics from coated stents. In kind it is physicochemical. The following applies: single-layer sirolimus/cilostazol coating of FIG. 83.
A short description of series [5]: In vivo release kinetics from coated stents, porcine pharmacokinetics studies. The following applies: combination coatings with rapamycin.
Excerpt: The topcoat is two hundred micro grams.
FIG. 61 is a graphical representation of the in vivo release kinetics of cladribine from a polymeric coating on Bx Velocity® stents, available from Cordis Corporation, implanted in a Yorkshire pig. The basecoat comprises an 85/15 ratio of PVDF and HFP and cladribine for a total combined weight of one thousand eight hundred micrograms (cladribine comprising thirty percent of the total weight). The topcoat comprises an 85/15 ratio of PVDF/HFP and no cladribine. The total weight of the topcoat is three hundred micrograms.
(§3) The basecoat is applied to Bx Velocity® stents and implanted into Yorkshire pigs.
as §3
Another critical parameter for the performance of the thrombus resistance of a device coated with cilostazol is the duration of the drug release from the coating. This is of particular significance in the two weeks after device implantation. […] The purpose of the porcine PK study is to assess the local pharmacokinetics of a drug eluting stent at a given implantation time. Normally three stents are implanted in three different coronary arteries in a pig for a given time point and then retrieved for total drug recovery analysis. The stents are retrieved at predetermined time points; namely, 1, 3 and 8 days. The stents are extracted and the total amount of drug remaining on the stents is determined by analysis utilizing HPLC (high performance liquid chromatography) for total drug amount. The difference between the original amount of drug on the stent and the amount of drug retrieved at a given time represents the amount of drug released in that period. The continuous release of drug into surrounding arterial tissue is what prevents the neointimal growth and restenosis in the coronary artery. A normal plot represents the percentage of total drug released (%, y-axis) vs. time of implantation (day, x-axis). […] Curve 8102 represents cilostazol and curve 8104 represents sirolimus. […] In this exemplary configuration, the stent 8300 is coated with two layers. […]

Series [6] in a line: Cell viability assay (cytotoxicity of topotecan, etoposide). In kind it is cell-based.
Excerpt: as §1, §2

Series [7] can be described thus: Injectable liquid formulations of paclitaxel: composition and observation. It counts as physicochemical. An excerpt:
This solution remained clear.

Series [8] deals with human coronary artery smooth muscle cell. The series is described as follows: Inhibition of coronary artery smooth muscle cell proliferation by trichostatin A, in vitro cell culture study. It counts as cell-based. The conditions noted are these: read-out: anti-proliferative IC50. An excerpt: FIG. 51 is a graph of the inhibition of coronary artery smooth muscle cells by trichostatin A in a cell culture study.

In a further series the test system is tumor cell lines. The following applies: tumor cell lines (Woo et al.); cited from earlier work.

As to `CO[C@H]1C[C@@H]2CC[C@@H](C)[C@@](O)(O2)C(=O)C(=O)N2CCCC[C@H]2C(=O)O[C@H]([C@H](C)C[C@@H]2CC[C@@H](OC(=O)C(C)(CO)CO)[C@H](OC)C2)CC(=O)[C@H](C)/C=C(\C)[C@@H](O)[C@@H](OC)C(=O)[C@H](C)C[C@H](C)/C=C/C=C/C=C/1C` [CCI-779], the “concentration of CCI-779 in the final solution (HPLC)” value in series [1] (ethanol, Vitamin E TPGS, water) came out at 15000 µg/mL.
Take `COC[C@H]1OC(=O)/C(=C\N2CCCC2)C2=C(O)C(=O)C3=C([C@H](OC(C)=O)C[C@]4(C)C(=O)CC[C@@H]34)[C@]21C` [PX-867]: the “percent inhibition of coronary artery smooth muscle cell proliferation” value in series [2] (PX867 alone at a concentration of about 10^−6) was “close to one hundred percent inhibition”. Moreover, the “effect of the added agent on the anti-proliferative activity of rapamycin” value (from here on “effect of the added agent”) in series [2] was “strong synergistic effect”.
`COc1cc2c(cc1O)CC[C@@H]1[C@@H]2CC[C@]2(C)[C@@H](O)CC[C@@H]12` [Panzem®, 2-methoxyestradiol]: in [2], the “effect of the added agent” value is “increases the percent of inhibition of rapamycin alone” and the “inhibition of human coronary artery smooth muscle cell proliferation (in words)” value is “extremely effective inhibitor”. The “cell survival in MTS assay” value in series [3] was “do not reduce human coronary artery smooth muscle cell survival”.
Molecule `O=C1CCc2cc(OCCCCc3nnnn3C3CCCCC3)ccc2N1` [cilostazol, 6[4-(1-cyclohexyl-1H-tetrazol-5-yl)-butoxy]-3,4-dihydro-2-(1H)-quinolinone] returned a release in vitro in [4] of approximately 35%.
Consider `Nc1nc(Cl)nc2c1ncn2[C@H]1C[C@H](O)[C@@H](CO)O1` [cladribine, 2-chlorodeoxyadenosine], for which the “relative elution from polymeric stent coating in vivo (in words)” value (shortened to “relative elution”) in series [5] is on record as “elutes more rapidly than rapamycin”. In addition, in [2], the “effect of the added agent” value was “potentiate the anti-proliferative activity of rapamycin” and the “inhibition of human coronary artery smooth muscle cell proliferation (in words)” value is on record as “completely inhibits human coronary artery smooth muscle cell proliferation”.
Take `COc1cc([C@@H]2c3cc4c(cc3[C@@H](O[C@@H]3O[C@@H]5CO[C@@H](C)O[C@H]5[C@H](O)[C@H]3O)[C@H]3COC(=O)[C@H]23)OCO4)cc(OC)c1O` [etoposide]: in series [6] (concentrations up to ten micromolar), the “cytotoxicity in cell viability assay” value is reported as “non-cytotoxic”. Moreover, the “effect of the added agent” value in series [2] is given as “potentiate the anti-proliferative activity of rapamycin”.
`COc1c(C)c2c(c(O)c1C/C=C(\C)CCC(=O)O)C(=O)OC2` [mycophenolic acid]: the “relative elution” value in series [5] is “elutes more completely over a shorter duration than the rapamycin”. The “effect of the added agent” value in series [2] was “potentiates the anti-proliferative activity of rapamycin”.
Consider `CC(=O)O[C@H]1C(=O)[C@@]2(C)[C@H]([C@H](OC(=O)c3ccccc3)[C@]3(O)C[C@H](OC(=O)[C@H](O)[C@@H](NC(=O)c4ccccc4)c4ccccc4)C(C)=C1C3(C)C)[C@]1(OC(C)=O)CO[C@@H]1C[C@@H]2O` [paclitaxel], for which the “paclitaxel concentration as true liquid formulation” value in [7] is given as “up to 2.5 mg/ml”. In series [7] (2.5 mg/ml formulation), the “fold higher than the solubility of paclitaxel in water” value is given as “about 1000 fold”.
For `CO[C@H]1C[C@@H]2CC[C@@H](C)[C@@](O)(O2)C(=O)C(=O)N2CCCC[C@H]2C(=O)O[C@H]([C@H](C)C[C@@H]2CC[C@@H](O)[C@H](OC)C2)CC(=O)[C@H](C)/C=C(\C)[C@@H](O)[C@@H](OC)C(=O)[C@H](C)C[C@H](C)/C=C/C=C/C=C/1C` [rapamycin], the “sirolimus concentration relative to the solubility of sirolimus in water” value in series [1] (4 mg/ml PEG 200 formulation) is given as “about four hundred to about one thousand times higher”. Further, in [5], the “relative elution” value was “slower release rate than that of mycophenolic acid”.
On to `CC[C@@]1(O)C(=O)OCc2c1cc1n(c2=O)Cc2cc3c(CN(C)C)c(O)ccc3nc2-1` [topotecan], for which, in [6] (concentrations up to one micromolar), the “cytotoxicity in cell viability assay” value is “non-cytotoxic”. The “effect of the added agent” value in [2] is “potentiate the anti-proliferative activity of rapamycin”.
In general, IC50 refers to the concentration that inhibits the measured activity by half. Regarding `CC(/C=C/C(=O)NO)=C\[C@@H](C)C(=O)c1ccc(N(C)C)cc1` [trichostatin A], in series [8], the IC50 is approximately 6 nM. Besides, the “anti-proliferative IC50's” value in the series on tumor cell lines is reported as “low nM range”.
